Assay results from paper PMC2735267 (Neuropharmacology, 2009).
pKi: −log10 of the molar value. Like-named read-outs stand apart in the source and are kept apart here. Marks after values point to notes of the source that are not given here.

Legend:
DBA/2J mice [1] = test: 3-IC-induced hypothermia; assay type: in vivo, mouse
C57BL/6J mice = test: 3-IC-induced hypothermia; assay type: in vivo, mouse
DBA/2J mice [2] = test: Chronic intravenous 3-IC infusion and tolerance test; assay type: in vivo, mouse
[3] = system: cytisine-sensitive [125I]epibatidine binding sites; assay type: in vivo, DBA/2J mice; conditions: for Cytisine-sensitive [125I]epibatidine binding: 3-IC 0.2 mg/kg/h iv 7 days; for Cytisine-sensitive [125I]epibatidine binding % change: 3-IC 0.2 mg/kg/h iv 7 days vs saline
[4] = system: cytisine-resistant [125I]epibatidine binding sites; conditions: for Cytisine-resistant [125I]epibatidine binding: 3-IC 0.2 mg/kg/h iv 7 days; for Cytisine-resistant [125I]epibatidine binding % change: 3-IC 0.2 mg/kg/h iv 7 days vs saline
human α4β2 = conditions: read-out: Ki human α4β2; expressed in Xenopus oocytes; ref Slater et al., 2003; cited from earlier work
[5] = dorsolateral geniculate nucleus
[6] = superior colliculus (optic nerve)
[7] = superior colliculus (sup. gray)

Structure (SMILES): O=c1c(I)ccc2n1C[C@@H]1CNC[C@H]2C1 [3-IC, 3-iodocytisine]
- decrease of basal temperature (DBA/2J mice [1]; 0.2 mg/kg ip acute, DBA/2J): 7.7 ± 0.5 °C
- tremors or diarrhea (DBA/2J mice [1]; 0.2 mg/kg ip, DBA/2J and C57BL/6J): without inducing tremors or diarrhea
- maximal temperature decrease (DBA/2J mice [1]; 1 mg/kg ip, DBA/2J): 11.9 ± 0.4 °C
- time of maximal hypothermia after 3-IC injection, saline pretreated (DBA/2J mice [1]; 3-IC 0.2 mg/kg, DBA/2J): 40 min
- seizures (DBA/2J mice [1]; any dose tested (0.05-1 mg/kg ip), DBA/2J and C57BL/6J): no seizures were noted
- maximal 3-IC-induced hypothermia after saline pretreatment (DBA/2J mice [1]; hexamethonium experiment, 3-IC 0.2 mg/kg, DBA/2J): 8.10 ± 0.63 °
- doses at which tremors were seen (DBA/2J mice [1]; ip acute, DBA/2J and C57BL/6J): above 0.5 mg/kg
- ED50 for hypothermia (DBA/2J mice [1]; ip, DBA/2J, maximal drop in temperature): 0.15 ± 0.04 mg/kg
- 3-IC-induced hypothermia after saline pretreatment (DBA/2J mice [1]; mecamylamine experiment, 3-IC 0.2 mg/kg ip, DBA/2J): 8.50 ± 0.42 °C
- decrease of basal temperature (C57BL/6J mice; 0.2 mg/kg ip acute): 9.2 ± 1.13 °C
- maximal temperature decrease (C57BL/6J mice; 1 mg/kg ip): 13.3 ± 0.9 °C
- maximal 3-IC-induced hypothermia after saline pretreatment (C57BL/6J mice; hexamethonium experiment, 3-IC 0.2 mg/kg): 9.25 ± 0.76 °C
- ED50 for hypothermia (C57BL/6J mice; ip, maximal drop in temperature): 0.16 ± 0.03 mg/kg
- 3-IC-induced hypothermia after saline pretreatment (C57BL/6J mice; mecamylamine experiment, 3-IC 0.2 mg/kg ip): 9.25 ± 0.76 °C
- tolerance after chronic infusion (DBA/2J mice [2]; 0.2 mg/kg/h iv 7 days): did not elicit tolerance
- decrease of body temperature during infusion (DBA/2J mice [2]; after 24 hours of continuous intravenous infusion of 0.5 mg/kg/h): 13 ± 0.3 °C
- infusion doses that elicited tremors (DBA/2J mice [2]; continuous intravenous infusion): higher than 0.2 mg/kg/h
- Cytisine-sensitive [125I]epibatidine binding ([3]; anterior olfactory nucleus): 16.1 ± 1.4 fmol/mg
- Cytisine-sensitive [125I]epibatidine binding % change ([3]; anterior olfactory nucleus): 53.5%
- Cytisine-sensitive [125I]epibatidine binding ([3]; anteromedial thalamic nucleus): 50.3 ± 4.0 fmol/mg
- Cytisine-sensitive [125I]epibatidine binding % change ([3]; anteromedial thalamic nucleus): -0.8%
- Cytisine-sensitive [125I]epibatidine binding ([3]; caudate putamen): 20.3 ± 1.9 fmol/mg
- Cytisine-sensitive [125I]epibatidine binding % change ([3]; caudate putamen): 68.3 * %
- Cytisine-sensitive [125I]epibatidine binding ([3]; cingulate cortex): 23.6 ± 1.5 fmol/mg
- Cytisine-sensitive [125I]epibatidine binding % change ([3]; cingulate cortex): 42.0%
- Cytisine-sensitive [125I]epibatidine binding ([3]; dentate gyrus (granular layer)): 12.3 ± 0.6 fmol/mg
- Cytisine-sensitive [125I]epibatidine binding % change ([3]; dentate gyrus (granular layer)): 46.8 * %
- Cytisine-sensitive [125I]epibatidine binding [3, 5]: 70.7 ± 3.9 fmol/mg
- Cytisine-sensitive [125I]epibatidine binding % change [3, 5]: 9.7%
- Cytisine-sensitive [125I]epibatidine binding ([3]; dorsomedial thalamic nucleus): 52.9 ± 5.2 fmol/mg
- Cytisine-sensitive [125I]epibatidine binding % change ([3]; dorsomedial thalamic nucleus): -4.5%
- Cytisine-sensitive [125I]epibatidine binding ([3]; fasciculus retroflexus): 40.2 ± 4.0 fmol/mg
- Cytisine-sensitive [125I]epibatidine binding % change ([3]; fasciculus retroflexus): 1.0%
- Cytisine-sensitive [125I]epibatidine binding ([3]; hippocampus (CA1-3)): 9.0 ± 0.2 fmol/mg
- Cytisine-sensitive [125I]epibatidine binding % change ([3]; hippocampus (CA1-3)): 56.3 *** %
- Cytisine-sensitive [125I]epibatidine binding ([3]; inferior colliculus (central)): 12.2 ± 2.5 fmol/mg
- Cytisine-sensitive [125I]epibatidine binding % change ([3]; inferior colliculus (central)): 97.2 * %
- Cytisine-sensitive [125I]epibatidine binding ([3]; inferior colliculus (dorsal)): 22.8 ± 2.1 fmol/mg
- Cytisine-sensitive [125I]epibatidine binding % change ([3]; inferior colliculus (dorsal)): 68.7 * %
- Cytisine-sensitive [125I]epibatidine binding ([3]; inferior colliculus (external)): 16.8 ± 2.1 fmol/mg
- Cytisine-sensitive [125I]epibatidine binding % change ([3]; inferior colliculus (external)): 88.9 * %
- Cytisine-sensitive [125I]epibatidine binding ([3]; interpeduncular nucleus): 194.7 ± 42.8 fmol/mg
- Cytisine-sensitive [125I]epibatidine binding % change ([3]; interpeduncular nucleus): -0.6%
- Cytisine-sensitive [125I]epibatidine binding ([3]; medial geniculate nucleus): 49.4 ± 8.2 fmol/mg
- Cytisine-sensitive [125I]epibatidine binding % change ([3]; medial geniculate nucleus): 27.2%
- Cytisine-sensitive [125I]epibatidine binding ([3]; medial habenula): 171.3 ± 36.4 fmol/mg
- Cytisine-sensitive [125I]epibatidine binding % change ([3]; medial habenula): 52.6%
- Cytisine-sensitive [125I]epibatidine binding ([3]; nucleus accumbens): 15.9 ± 2.1 fmol/mg
- Cytisine-sensitive [125I]epibatidine binding % change ([3]; nucleus accumbens): 91.8 * %
- Cytisine-sensitive [125I]epibatidine binding ([3]; olfactory tubercle): 14.5 ± 1.6 fmol/mg
- Cytisine-sensitive [125I]epibatidine binding % change ([3]; olfactory tubercle): 83.5 * %
- Cytisine-sensitive [125I]epibatidine binding ([3]; optic tract): 15.1 ± 2.9 fmol/mg
- Cytisine-sensitive [125I]epibatidine binding % change ([3]; optic tract): 126.2%
- Cytisine-sensitive [125I]epibatidine binding % change ([3]; optic tract, listed as 3-iodocytisine): 126.2 * %
- Cytisine-sensitive [125I]epibatidine binding ([3]; parietal cortex (layers 1-3)): 9.1 ± 1.0 fmol/mg
- Cytisine-sensitive [125I]epibatidine binding % change ([3]; parietal cortex (layers 1-3)): 71.7 * %
- Cytisine-sensitive [125I]epibatidine binding ([3]; parietal cortex (layers 4-6)): 19.0 ± 1.6 fmol/mg
- Cytisine-sensitive [125I]epibatidine binding % change ([3]; parietal cortex (layers 4-6)): 79.7 * %
- Cytisine-sensitive [125I]epibatidine binding ([3]; retrosplenial Cortex): 26.6 ± 2.7 fmol/mg
- Cytisine-sensitive [125I]epibatidine binding % change ([3]; retrosplenial Cortex): 35.6%
- Cytisine-sensitive [125I]epibatidine binding ([3]; subiculum): 41.7 ± 3.8 fmol/mg
- Cytisine-sensitive [125I]epibatidine binding % change ([3]; subiculum): 27.8%
- Cytisine-sensitive [125I]epibatidine binding ([3]; substantia nigra): 43.6 ± 7.3 fmol/mg
- Cytisine-sensitive [125I]epibatidine binding % change ([3]; substantia nigra): 38.0%
- Cytisine-sensitive [125I]epibatidine binding [3, 6]: 47.3 ± 2.2 fmol/mg
- Cytisine-sensitive [125I]epibatidine binding % change [3, 6]: 60.6 *** %
- Cytisine-sensitive [125I]epibatidine binding [3, 7]: 51.2 ± 4.4 fmol/mg
- Cytisine-sensitive [125I]epibatidine binding % change [3, 7]: 50.2 ** %
- Cytisine-sensitive [125I]epibatidine binding ([3]; ventral tegmental area): 25.1 ± 1.5 fmol/mg
- Cytisine-sensitive [125I]epibatidine binding % change ([3]; ventral tegmental area): 45.2%
- Cytisine-sensitive [125I]epibatidine binding % change ([3]; ventral tegmental area, listed as 3-iodocytisine): 45.2 * %
- Cytisine-sensitive [125I]epibatidine binding ([3]; ventromedial thalamic nucleus): 50.7 ± 1.5 fmol/mg
- Cytisine-sensitive [125I]epibatidine binding % change ([3]; ventromedial thalamic nucleus): -0.8%
- Cytisine-sensitive [125I]epibatidine binding ([3]; zona incerta): 13.7 ± 1.2 fmol/mg
- Cytisine-sensitive [125I]epibatidine binding % change ([3]; zona incerta): 55.3 * %
- Cytisine-resistant [125I]epibatidine binding ([4]; anterior olfactory nucleus): 13.27 ± 2.48 fmol/mg
- Cytisine-resistant [125I]epibatidine binding ([4]; anteromedial thalamic nucleus): 3.97 ± 0.25 fmol/mg
- Cytisine-resistant [125I]epibatidine binding % change ([4]; anteromedial thalamic nucleus): 22.0%
- cytisine-resistant [125I]epibatidine sites after chronic treatment ([4]; autoradiography, 0.2 mg/kg/h iv 7 days): not affected
- Cytisine-resistant [125I]epibatidine binding ([4]; caudate putamen): 2.39 ± 0.29 fmol/mg
- Cytisine-resistant [125I]epibatidine binding % change ([4]; caudate putamen): 18.2%
- Cytisine-resistant [125I]epibatidine binding ([4]; cingulate cortex): 1.25 ± 0.13 fmol/mg
- Cytisine-resistant [125I]epibatidine binding % change ([4]; cingulate cortex): 26.9%
- Cytisine-resistant [125I]epibatidine binding ([4]; dentate gyrus (granular layer)): 1.15 ± 0.06 fmol/mg
- Cytisine-resistant [125I]epibatidine binding % change ([4]; dentate gyrus (granular layer)): 17.3%
- Cytisine-resistant [125I]epibatidine binding [4, 5]: 9.89 ± 0.66 fmol/mg
- Cytisine-resistant [125I]epibatidine binding % change [4, 5]: -2.8%
- Cytisine-resistant [125I]epibatidine binding ([4]; dorsomedial thalamic nucleus): 3.78 ± 0.50 fmol/mg
- Cytisine-resistant [125I]epibatidine binding % change ([4]; dorsomedial thalamic nucleus): 5.3%
- Cytisine-resistant [125I]epibatidine binding ([4]; fasciculus retroflexus): 63.47 ± 4.86 fmol/mg
- Cytisine-resistant [125I]epibatidine binding % change ([4]; fasciculus retroflexus): 3.1%
- Cytisine-resistant [125I]epibatidine binding ([4]; hippocampus (CA1-3)): 0.98 ± 0.06 fmol/mg
- Cytisine-resistant [125I]epibatidine binding % change ([4]; hippocampus (CA1-3)): 20.2%
- Cytisine-resistant [125I]epibatidine binding ([4]; inferior colliculus (central)): 4.00 ± 1.42 fmol/mg
- Cytisine-resistant [125I]epibatidine binding % change ([4]; inferior colliculus (central)): 68.2%
- Cytisine-resistant [125I]epibatidine binding ([4]; inferior colliculus (dorsal)): 10.17 ± 2.62 fmol/mg
- Cytisine-resistant [125I]epibatidine binding % change ([4]; inferior colliculus (dorsal)): 67.7%
- Cytisine-resistant [125I]epibatidine binding ([4]; inferior colliculus (external)): 2.55 ± 0.19 fmol/mg
- Cytisine-resistant [125I]epibatidine binding % change ([4]; inferior colliculus (external)): 24.2%
- Cytisine-resistant [125I]epibatidine binding ([4]; interpeduncular nucleus): 211.95 ± 31.83 fmol/mg
- Cytisine-resistant [125I]epibatidine binding ([4]; medial geniculate nucleus): 4.43 ± 0.80 fmol/mg
- Cytisine-resistant [125I]epibatidine binding % change ([4]; medial geniculate nucleus): 38.1%
- Cytisine-resistant [125I]epibatidine binding ([4]; medial habenula): 282.84 ± 31.53 fmol/mg
- Cytisine-resistant [125I]epibatidine binding % change ([4]; medial habenula): -13.5%
- Cytisine-resistant [125I]epibatidine binding ([4]; nucleus accumbens): 1.95 ± 0.21 fmol/mg
- Cytisine-resistant [125I]epibatidine binding % change ([4]; nucleus accumbens): 12.9%
- Cytisine-resistant [125I]epibatidine binding ([4]; olfactory tubercle): 2.9 ± 0.5 fmol/mg
- Cytisine-resistant [125I]epibatidine binding % change ([4]; olfactory tubercle): -17.1%
- Cytisine-resistant [125I]epibatidine binding ([4]; optic tract): 1.75 ± 0.22 fmol/mg
- Cytisine-resistant [125I]epibatidine binding % change ([4]; optic tract): 26.1%
- Cytisine-resistant [125I]epibatidine binding ([4]; parietal cortex (layers 1-3)): 0.62 ± 0.06 fmol/mg
- Cytisine-resistant [125I]epibatidine binding % change ([4]; parietal cortex (layers 1-3)): 24.6%
- Cytisine-resistant [125I]epibatidine binding ([4]; parietal cortex (layers 4-6)): 1.29 ± 0.07 fmol/mg
- Cytisine-resistant [125I]epibatidine binding % change ([4]; parietal cortex (layers 4-6)): 45.9%
- Cytisine-resistant [125I]epibatidine binding ([4]; retrosplenial Cortex): 1.63 ± 0.11 fmol/mg
- Cytisine-resistant [125I]epibatidine binding % change ([4]; retrosplenial Cortex): 35.8%
- Cytisine-resistant [125I]epibatidine binding ([4]; subiculum): 1.89 ± 0.10 fmol/mg
- Cytisine-resistant [125I]epibatidine binding ([4]; substantia nigra): 1.6 ± 0.2 fmol/mg
- Cytisine-resistant [125I]epibatidine binding % change ([4]; substantia nigra): 6.7%
- Cytisine-resistant [125I]epibatidine binding [4, 6]: 3.21 ± 0.14 fmol/mg
- Cytisine-resistant [125I]epibatidine binding % change [4, 6]: 0.5%
- Cytisine-resistant [125I]epibatidine binding [4, 7]: 11.25 ± 0.12 fmol/mg
- Cytisine-resistant [125I]epibatidine binding % change [4, 7]: 10.8%
- Cytisine-resistant [125I]epibatidine binding ([4]; ventral tegmental area): 3.4 ± 0.69 fmol/mg
- Cytisine-resistant [125I]epibatidine binding % change ([4]; ventral tegmental area): 20.5%
- Cytisine-resistant [125I]epibatidine binding ([4]; ventromedial thalamic nucleus): 3.29 ± 0.46 fmol/mg
- Cytisine-resistant [125I]epibatidine binding % change ([4]; ventromedial thalamic nucleus): 13.4%
- Cytisine-resistant [125I]epibatidine binding ([4]; zona incerta): 2.34 ± 0.22 fmol/mg
- pKi (human α4β2): 9.15
